Experimental data published in ChEMBL document CHEMBL1201862, “PubChem BioAssay data set” (2004).
The source made the active and inactive calls.

Key:
[1] = molecular target: T1, Orexin/Hypocretin receptor type 1 (Homo sapiens, UniProt O43613); experiment: Homogeneous Time Resolved Fluorescence (HTRF)-based cell-based high throughput dose response assay for antagonists of the orexin 1 receptor (OX1R; HCRTR1). [Related pubchem assays (depositor defined):AID434989, AID435008, AID463079, AID485270, AID492963, AID492964, AID492965, AID493232, AID504717, AID504718]; type: functional
Orexin receptor type 2 [2] = molecular target: T2, Orexin receptor type 2 (Homo sapiens, UniProt O43614); experiment: Counterscreen assay for antagonists of the orexin 1 receptor (OX1R; HCRTR1): Fluorescence-based cell-based dose response assay for antagonists of the orexin 2 receptor (OX2R; HCRTR2), run by assay provider.; type: functional
CHO-K1 = experiment: Counterscreen for antagonists of the orexin 1 receptor (OX1R; HCRTR1): Homogeneous time resolved fluorescence (HTRF)-based cell-based dose response assay to identify antagonists of the parental CHO-K1 cell line. [Related pubchem assays (depositor defined):AID434989, AID435008, AID463079, AID485270, AID492963, AID492964, AID492965, AID493232, AID504699, AID504701]; type: functional; conditions: Cricetulus griseus;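 also: potency for inhibition of ATP-stimulated IP1 production as antagonists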
[3] = Counterscreen for antagonists of the orexin 1 receptor (OX1R; HCRTR1): Fluorescence-based cell-based high throughput dose response assay to identify antagonists of the parental CHO cell line. [Related pubchem assays (depositor defined):AID434989, AID435008, AID463079, AID485270, AID492963, AID492964, AID492965, AID493232, AID504699, AID504701]; type: functional
[4] = molecular target: T1, Orexin/Hypocretin receptor type 1; experiment: Fluorescence-based cell-based high throughput dose response assay for antagonists of the orexin 1 receptor (OX1R; HCRTR1). [Related pubchem assays (depositor defined):AID434989, AID435008, AID463079, AID485270, AID492963, AID492964, AID492965, AID493232, AID504717, AID504718]; type: functional
Orexin receptor type 2 [5] = molecular target: T2, Orexin receptor type 2; experiment: Counterscreen assay for antagonists of the orexin 1 receptor (OX1R; HCRTR1): Homogeneous Time Resolved Fluorescence (HTRF)-based cell-based dose response assay for antagonists of the orexin 2 receptor (OX2R; HCRTR2), run by assay provider.; type: functional
[6] = molecular target: T3, High affinity choline transporter 1 (Homo sapiens, UniProt Q9GZV3); experiment: human choline transporter potentiators, potency – cell-based, 10-point CRC, membrane potential dye, dose response (AID 602376); type: functional
T3 sequence (Q9GZV3 whole entry): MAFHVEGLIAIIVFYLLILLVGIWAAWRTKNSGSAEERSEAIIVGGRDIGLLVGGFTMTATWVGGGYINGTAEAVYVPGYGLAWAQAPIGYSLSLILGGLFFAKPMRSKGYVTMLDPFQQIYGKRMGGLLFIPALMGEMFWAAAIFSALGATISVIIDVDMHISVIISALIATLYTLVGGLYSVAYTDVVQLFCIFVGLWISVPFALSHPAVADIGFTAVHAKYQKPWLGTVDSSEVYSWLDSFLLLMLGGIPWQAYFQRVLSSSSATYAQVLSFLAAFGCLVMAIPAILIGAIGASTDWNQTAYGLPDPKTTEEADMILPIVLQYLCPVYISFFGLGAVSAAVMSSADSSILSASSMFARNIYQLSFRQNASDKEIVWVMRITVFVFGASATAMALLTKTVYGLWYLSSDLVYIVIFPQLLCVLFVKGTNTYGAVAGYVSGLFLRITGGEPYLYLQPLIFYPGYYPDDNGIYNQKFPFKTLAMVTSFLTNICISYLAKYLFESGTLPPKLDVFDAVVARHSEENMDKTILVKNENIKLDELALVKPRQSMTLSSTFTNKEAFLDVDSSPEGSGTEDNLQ

[7] = molecular target: Glycogen synthase kinase-3 alpha (Homo sapiens, UniProt P49840); experiment: Inhibition of Human GSK-3 alpha Activity Measured in Biochemical System Using Microfluidics - 2063-06_Inhibitor_Dose_DryPowder_Activity_Set2. [Related pubchem assays (depositor defined):AID2709]
[8] = tested on: Streptococcus sp. 'group A'; experiment: Streptococcus pyogenes SK(-)GAS viability under kanamycin – luminescence, BacTiterGlo, confirmation, counter-screen for streptokinase expression inhibitor project, dose response (AID 1900); type: functional, organism-based
[9] = molecular target: T4, Glycogen synthase kinase-3 beta (Homo sapiens, UniProt P49841); experiment: Inhibition of Human GSK-3 beta Activity Measured in Biochemical System Using Microfluidics - 2063-05_Inhibitor_Dose_DryPowder_Activity_Set2. [Related pubchem assays (depositor defined):AID2709]
[10] = Luminescence Cell-Based Dose Retest to Confirm Inhibitors of Cancer Stem Cells. [Related pubchem assays (depositor defined):AID2717, AID2721]; type: functional; conditions: Homo sapiens
Streptococcus = experiment: GAS UMAA2166 growth inhibition – luminescence, BacTiterGlo, counter-screen for streptokinase expression inhibitor project, dose response (AID 1915); type: functional, organism-based;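 also: potency for reduction of bacterial viability or growth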
Streptokinase A = molecular target: T5, Streptokinase A (Streptococcus pyogenes serotype M1, UniProt P10520); experiment: viability-normalized secreted streptokinase activity reduction – plasminogen activation absorbance, OD405, dose response (AID 1914); type: functional, Streptococcus pyogenes M1 GAS;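 also: secreted streptokinase activity via plasminogen activation per viability signal from cell pellet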
T5 sequence (P10520 whole entry): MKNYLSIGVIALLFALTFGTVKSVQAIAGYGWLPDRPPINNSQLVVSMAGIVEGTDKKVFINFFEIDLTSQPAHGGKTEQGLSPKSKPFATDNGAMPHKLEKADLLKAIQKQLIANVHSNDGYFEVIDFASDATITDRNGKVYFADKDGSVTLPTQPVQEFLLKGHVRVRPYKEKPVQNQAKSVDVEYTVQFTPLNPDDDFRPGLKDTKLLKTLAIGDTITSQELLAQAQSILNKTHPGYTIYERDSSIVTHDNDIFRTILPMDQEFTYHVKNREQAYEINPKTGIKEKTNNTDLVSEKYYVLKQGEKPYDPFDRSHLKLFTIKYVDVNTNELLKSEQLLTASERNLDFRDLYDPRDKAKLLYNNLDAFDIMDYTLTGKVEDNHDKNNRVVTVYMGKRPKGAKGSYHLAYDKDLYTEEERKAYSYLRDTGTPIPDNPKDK

[11] = molecular target: Cyclin-dependent kinase 5/CDK5 activator 1 (Homo sapiens, UniProt Q00535); experiment: human CDK5 activity blockade – biochemical, microfluidic mobility shift, dry powder, selectivity assay for GSK-3 alpha inhibitor project, dose response (AID 588430)
[12] = molecular target: Mitogen-activated protein kinase kinase kinase kinase 4 (Homo sapiens, UniProt O95819); type: functional
[13] = molecular target: cAMP-dependent protein kinase catalytic subunit alpha (Homo sapiens, UniProt P17612); type: functional
[14] = molecular target: MAP kinase-interacting serine/threonine-protein kinase 2 (Homo sapiens, UniProt Q9HBH9); type: functional
[15] = molecular target: Interleukin-1 receptor-associated kinase 4 (Homo sapiens, UniProt Q9NWZ3); type: functional
[16] = molecular target: Homeodomain-interacting protein kinase 2 (Homo sapiens, UniProt Q9H2X6); type: functional;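 also: measured within a kinome-wide kinase profiling panel, HIPK2 being one panel member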
[17] = molecular target: T4, Glycogen synthase kinase-3 beta; type: functional
[18] = molecular target: Serine/threonine-protein kinase pim-1 (Homo sapiens, UniProt P11309); type: functional
[19] = molecular target: Dual specificity protein kinase CLK4 (Homo sapiens, UniProt Q9HAZ1); type: functional
[20] = molecular target: Cell division cycle 7-related protein kinase (Homo sapiens, UniProt O00311); type: functional;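 also: value obtained from a kinome-wide kinase panel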
[21] = molecular target: T6, Serine/threonine-protein kinase Chk1 (Homo sapiens, UniProt O14757); type: functional;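 also: measured as one member of a kinome-wide kinase profiling panel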
T6 sequence (O14757 whole entry): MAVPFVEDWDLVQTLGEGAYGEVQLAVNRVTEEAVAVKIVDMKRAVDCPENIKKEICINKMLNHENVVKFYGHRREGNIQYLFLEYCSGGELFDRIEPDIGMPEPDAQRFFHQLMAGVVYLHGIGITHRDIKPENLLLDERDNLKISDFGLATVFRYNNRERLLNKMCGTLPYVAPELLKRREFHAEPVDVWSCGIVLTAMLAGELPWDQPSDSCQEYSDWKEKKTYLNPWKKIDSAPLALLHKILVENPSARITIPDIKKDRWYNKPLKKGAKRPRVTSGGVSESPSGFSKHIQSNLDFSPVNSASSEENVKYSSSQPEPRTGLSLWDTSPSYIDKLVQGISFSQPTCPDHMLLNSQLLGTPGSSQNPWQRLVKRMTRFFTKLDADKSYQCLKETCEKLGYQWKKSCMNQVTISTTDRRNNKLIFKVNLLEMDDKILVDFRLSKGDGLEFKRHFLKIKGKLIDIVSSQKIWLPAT

LIM domain kinase 1 = LIM domain kinase 1 (Homo sapiens, UniProt P53667); experiment: Navigating the Kinome. Panel member name: LIMK1; type: functional
[22] = molecular target: Cyclin-dependent kinase 5 (Homo sapiens, UniProt Q00535); type: functional;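 also: CDK5 measured as one member of a kinase profiling panel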
[23] = molecular target: DNA dC->dU-editing enzyme APOBEC-3A (Homo sapiens, UniProt P31941); experiment: SAR analysis of small molecule inhibitors of APOBEC3A DNA Deaminase via a fluorescence-based single-stranded DNA deaminase assay.; type: functional; conditions: read-out: IC50_Mean
[24] = molecular target: DNA dC->dU-editing enzyme APOBEC-3G (Homo sapiens, UniProt Q9HC16); experiment: inhibition of APOBEC3G ssDNA deamination – biochemical, fluorescence, single-stranded DNA substrate, SAR follow-up (AID 602136); type: functional; conditions: read-out: IC50_Mean
Prothrombin = Prothrombin (Bos taurus, UniProt P00735); experiment: thrombin protease inhibitors – biochemical, fluorescence polarization, uHTS hits, dose response (AID 602369); type: functional
[25] = molecular target: T7, RNA-binding protein pos-1 (Caenorhabditis elegans, UniProt G5EF15); experiment: disruptors of C. elegans POS-1 RNA interaction – biochemical, fluorescence polarization, dose response (AID 1964);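 also: purified POS-1 fused to maltose binding protein made in E. coli; potency of compounds blocking POS-1 binding to fluorescent RNA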
T7 sequence (G5EF15 whole entry): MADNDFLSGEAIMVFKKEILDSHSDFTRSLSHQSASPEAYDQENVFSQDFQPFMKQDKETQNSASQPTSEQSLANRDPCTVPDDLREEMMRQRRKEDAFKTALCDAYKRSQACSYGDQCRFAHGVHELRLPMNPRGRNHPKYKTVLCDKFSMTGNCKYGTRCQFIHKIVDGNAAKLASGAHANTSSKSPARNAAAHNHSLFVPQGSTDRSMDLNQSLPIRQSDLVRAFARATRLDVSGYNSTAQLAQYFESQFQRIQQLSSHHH

[26] = molecular target: 26S proteasome non-ATPase regulatory subunit 14 (Homo sapiens, UniProt O00487); experiment: inhibition of proteasome subunit RPN11 – biochemical, fluorescence polarization, uHTS hits, confirmation (AID 602368); type: functional
[27] = molecular target: T8, Zinc finger protein mex-5 (Caenorhabditis elegans, UniProt Q9XUB2); experiment: potency of MEX-5 RNA-binding blockers – biochemical, C. elegans, fluorescence polarization, dose response (AID 1960)
T8 sequence (Q9XUB2 whole entry): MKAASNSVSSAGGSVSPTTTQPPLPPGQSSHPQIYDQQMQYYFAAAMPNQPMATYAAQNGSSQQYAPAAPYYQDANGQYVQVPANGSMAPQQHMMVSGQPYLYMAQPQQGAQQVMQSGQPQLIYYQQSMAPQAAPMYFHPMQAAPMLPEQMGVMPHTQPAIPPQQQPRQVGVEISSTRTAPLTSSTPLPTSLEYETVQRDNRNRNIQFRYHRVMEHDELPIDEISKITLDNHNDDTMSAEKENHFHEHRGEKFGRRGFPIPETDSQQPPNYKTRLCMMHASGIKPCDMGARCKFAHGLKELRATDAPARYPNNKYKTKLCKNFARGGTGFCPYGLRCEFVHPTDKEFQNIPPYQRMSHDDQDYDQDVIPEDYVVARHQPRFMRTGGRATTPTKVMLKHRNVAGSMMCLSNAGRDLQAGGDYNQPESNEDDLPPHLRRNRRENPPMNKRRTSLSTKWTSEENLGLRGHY

[28] = molecular target: 72 kDa type IV collagenase (Homo sapiens, UniProt P08253); experiment: Dose Response validation of uHTS RPN11 inhibitor hits using a MMP-2 Fluorescence assay.; type: functional

T1 sequence (O43613 whole entry): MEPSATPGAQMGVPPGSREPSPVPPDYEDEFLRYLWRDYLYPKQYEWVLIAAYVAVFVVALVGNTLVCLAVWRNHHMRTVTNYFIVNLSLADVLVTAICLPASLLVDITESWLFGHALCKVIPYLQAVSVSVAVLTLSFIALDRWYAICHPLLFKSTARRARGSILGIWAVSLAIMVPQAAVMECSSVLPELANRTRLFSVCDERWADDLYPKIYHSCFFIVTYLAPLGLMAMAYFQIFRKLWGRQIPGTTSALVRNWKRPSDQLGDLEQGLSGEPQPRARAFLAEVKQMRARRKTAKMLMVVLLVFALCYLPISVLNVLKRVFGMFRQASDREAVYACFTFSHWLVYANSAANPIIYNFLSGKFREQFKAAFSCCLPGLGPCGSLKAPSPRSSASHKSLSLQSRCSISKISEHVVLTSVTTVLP
T2 sequence (O43614 whole entry): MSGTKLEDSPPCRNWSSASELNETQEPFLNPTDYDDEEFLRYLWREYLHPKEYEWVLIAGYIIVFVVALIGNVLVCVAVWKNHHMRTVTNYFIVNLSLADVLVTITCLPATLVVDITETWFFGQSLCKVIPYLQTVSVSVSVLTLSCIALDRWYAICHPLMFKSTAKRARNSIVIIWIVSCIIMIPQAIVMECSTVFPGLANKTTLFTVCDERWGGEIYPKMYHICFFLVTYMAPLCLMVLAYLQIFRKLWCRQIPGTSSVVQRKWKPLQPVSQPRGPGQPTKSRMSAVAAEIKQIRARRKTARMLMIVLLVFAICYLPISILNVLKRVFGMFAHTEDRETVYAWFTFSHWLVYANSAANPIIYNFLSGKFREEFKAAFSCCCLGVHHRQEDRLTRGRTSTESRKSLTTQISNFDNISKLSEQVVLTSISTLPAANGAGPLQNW
Chain of Dual specificity protein kinase CLK4 (Q9HAZ1 whole entry): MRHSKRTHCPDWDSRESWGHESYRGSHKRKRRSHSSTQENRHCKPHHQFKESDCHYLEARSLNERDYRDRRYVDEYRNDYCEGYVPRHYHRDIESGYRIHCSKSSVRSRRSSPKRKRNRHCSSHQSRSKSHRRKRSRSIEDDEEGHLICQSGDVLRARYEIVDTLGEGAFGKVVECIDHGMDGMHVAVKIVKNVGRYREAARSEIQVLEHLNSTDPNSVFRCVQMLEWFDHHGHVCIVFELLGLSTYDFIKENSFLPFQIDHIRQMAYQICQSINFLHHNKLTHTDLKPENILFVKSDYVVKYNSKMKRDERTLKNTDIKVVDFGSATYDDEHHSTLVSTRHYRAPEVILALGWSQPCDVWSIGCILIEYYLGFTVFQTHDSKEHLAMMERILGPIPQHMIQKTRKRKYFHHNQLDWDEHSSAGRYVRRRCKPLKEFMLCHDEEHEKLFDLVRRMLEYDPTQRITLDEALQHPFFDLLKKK
T4 sequence (P49841 whole entry): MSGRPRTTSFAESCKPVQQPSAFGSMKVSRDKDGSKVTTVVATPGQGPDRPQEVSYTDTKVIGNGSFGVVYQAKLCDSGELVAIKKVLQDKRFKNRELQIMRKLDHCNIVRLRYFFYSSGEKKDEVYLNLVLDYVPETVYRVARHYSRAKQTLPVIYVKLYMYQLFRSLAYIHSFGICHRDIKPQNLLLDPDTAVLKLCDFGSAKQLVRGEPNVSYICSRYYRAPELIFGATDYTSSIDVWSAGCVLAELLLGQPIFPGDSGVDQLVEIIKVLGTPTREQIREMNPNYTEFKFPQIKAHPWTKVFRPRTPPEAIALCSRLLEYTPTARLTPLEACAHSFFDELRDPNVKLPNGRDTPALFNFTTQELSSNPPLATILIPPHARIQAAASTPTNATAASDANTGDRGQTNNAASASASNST
Chain of Homeodomain-interacting protein kinase 2 (Q9H2X6 whole entry): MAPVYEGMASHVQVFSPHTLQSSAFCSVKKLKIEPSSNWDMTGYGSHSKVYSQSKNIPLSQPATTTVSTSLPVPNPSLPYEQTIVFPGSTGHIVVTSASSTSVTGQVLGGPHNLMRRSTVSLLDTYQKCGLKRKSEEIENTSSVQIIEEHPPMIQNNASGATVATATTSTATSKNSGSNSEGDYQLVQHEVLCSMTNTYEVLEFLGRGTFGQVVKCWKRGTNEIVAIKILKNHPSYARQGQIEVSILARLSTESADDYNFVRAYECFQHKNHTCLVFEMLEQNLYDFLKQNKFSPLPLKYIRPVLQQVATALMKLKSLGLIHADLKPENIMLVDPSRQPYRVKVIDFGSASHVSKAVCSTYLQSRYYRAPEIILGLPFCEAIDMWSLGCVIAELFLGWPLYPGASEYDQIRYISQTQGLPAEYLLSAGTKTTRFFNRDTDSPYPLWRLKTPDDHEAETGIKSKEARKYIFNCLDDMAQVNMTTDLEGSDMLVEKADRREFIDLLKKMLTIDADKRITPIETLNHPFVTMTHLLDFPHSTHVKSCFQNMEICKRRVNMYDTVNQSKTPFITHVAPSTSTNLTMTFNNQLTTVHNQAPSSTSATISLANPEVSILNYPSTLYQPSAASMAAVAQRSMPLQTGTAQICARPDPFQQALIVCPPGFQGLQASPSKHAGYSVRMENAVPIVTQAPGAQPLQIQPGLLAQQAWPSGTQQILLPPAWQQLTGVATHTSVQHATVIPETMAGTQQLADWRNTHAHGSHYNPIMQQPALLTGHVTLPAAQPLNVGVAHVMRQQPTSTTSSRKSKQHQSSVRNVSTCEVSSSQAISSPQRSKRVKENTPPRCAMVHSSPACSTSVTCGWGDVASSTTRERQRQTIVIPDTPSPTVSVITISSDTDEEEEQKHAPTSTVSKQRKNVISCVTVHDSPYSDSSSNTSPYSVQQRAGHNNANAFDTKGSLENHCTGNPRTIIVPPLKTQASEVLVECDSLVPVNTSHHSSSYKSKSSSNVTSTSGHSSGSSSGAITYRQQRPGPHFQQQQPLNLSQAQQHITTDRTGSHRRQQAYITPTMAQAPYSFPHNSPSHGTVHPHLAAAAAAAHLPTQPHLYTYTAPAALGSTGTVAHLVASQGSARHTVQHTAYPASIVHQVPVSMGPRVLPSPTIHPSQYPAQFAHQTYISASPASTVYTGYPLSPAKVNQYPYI
Chain of DNA dC->dU-editing enzyme APOBEC-3G (Q9HC16 whole entry): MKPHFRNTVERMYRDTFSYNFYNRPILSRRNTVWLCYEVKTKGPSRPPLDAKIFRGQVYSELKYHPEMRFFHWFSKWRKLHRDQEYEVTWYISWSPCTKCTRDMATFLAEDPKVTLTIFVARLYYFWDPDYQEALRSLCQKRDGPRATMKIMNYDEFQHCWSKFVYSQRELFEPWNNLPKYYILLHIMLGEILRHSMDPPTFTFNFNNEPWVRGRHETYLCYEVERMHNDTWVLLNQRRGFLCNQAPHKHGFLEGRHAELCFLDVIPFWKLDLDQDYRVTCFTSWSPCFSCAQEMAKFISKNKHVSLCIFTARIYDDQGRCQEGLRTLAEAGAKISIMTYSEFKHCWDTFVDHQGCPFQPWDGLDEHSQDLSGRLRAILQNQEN
Chain of Mitogen-activated protein kinase kinase kinase kinase 4 (O95819 whole entry): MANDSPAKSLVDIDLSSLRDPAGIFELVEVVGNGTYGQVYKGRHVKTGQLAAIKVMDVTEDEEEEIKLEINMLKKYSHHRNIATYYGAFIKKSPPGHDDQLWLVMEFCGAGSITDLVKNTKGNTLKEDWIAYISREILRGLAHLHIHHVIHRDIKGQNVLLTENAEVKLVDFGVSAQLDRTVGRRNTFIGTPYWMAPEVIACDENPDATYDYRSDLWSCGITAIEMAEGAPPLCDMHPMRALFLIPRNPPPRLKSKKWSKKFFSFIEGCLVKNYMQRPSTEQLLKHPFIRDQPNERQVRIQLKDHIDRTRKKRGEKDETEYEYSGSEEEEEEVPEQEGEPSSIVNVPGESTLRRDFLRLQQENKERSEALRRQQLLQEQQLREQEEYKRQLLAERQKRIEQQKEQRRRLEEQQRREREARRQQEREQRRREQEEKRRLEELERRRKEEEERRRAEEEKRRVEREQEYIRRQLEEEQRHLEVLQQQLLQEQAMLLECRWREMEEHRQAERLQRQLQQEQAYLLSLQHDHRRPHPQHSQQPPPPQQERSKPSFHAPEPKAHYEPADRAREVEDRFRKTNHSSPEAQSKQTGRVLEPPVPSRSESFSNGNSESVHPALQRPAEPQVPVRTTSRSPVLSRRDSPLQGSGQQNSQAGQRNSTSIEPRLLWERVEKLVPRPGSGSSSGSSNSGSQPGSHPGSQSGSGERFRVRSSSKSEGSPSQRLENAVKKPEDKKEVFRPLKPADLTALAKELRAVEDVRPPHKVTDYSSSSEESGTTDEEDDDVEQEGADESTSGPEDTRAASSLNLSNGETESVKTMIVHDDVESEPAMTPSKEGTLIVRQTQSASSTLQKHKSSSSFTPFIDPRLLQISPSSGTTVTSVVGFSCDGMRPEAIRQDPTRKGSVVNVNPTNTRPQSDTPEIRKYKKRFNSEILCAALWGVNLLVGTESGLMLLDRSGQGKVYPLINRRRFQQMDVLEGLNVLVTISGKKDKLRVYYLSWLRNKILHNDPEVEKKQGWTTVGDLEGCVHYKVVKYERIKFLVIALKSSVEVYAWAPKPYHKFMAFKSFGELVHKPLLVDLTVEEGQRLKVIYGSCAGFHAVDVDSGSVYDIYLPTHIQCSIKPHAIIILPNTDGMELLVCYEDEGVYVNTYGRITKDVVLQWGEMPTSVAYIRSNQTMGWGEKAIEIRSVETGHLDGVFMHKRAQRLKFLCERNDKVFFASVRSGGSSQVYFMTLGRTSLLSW
Chain of 26S proteasome non-ATPase regulatory subunit 14 (O00487 whole entry): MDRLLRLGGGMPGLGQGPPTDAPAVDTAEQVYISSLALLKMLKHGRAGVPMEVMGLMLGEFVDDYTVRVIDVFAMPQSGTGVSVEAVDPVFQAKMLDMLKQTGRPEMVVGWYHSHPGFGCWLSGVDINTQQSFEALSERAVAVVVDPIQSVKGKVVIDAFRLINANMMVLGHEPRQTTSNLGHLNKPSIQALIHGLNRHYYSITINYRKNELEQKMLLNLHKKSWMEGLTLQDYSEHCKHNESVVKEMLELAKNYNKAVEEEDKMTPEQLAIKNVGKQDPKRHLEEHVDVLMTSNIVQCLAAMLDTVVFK

CCc1cc2c(SCC(=O)N(CC)c3c(N)n(Cc4ccccc4)c(=O)[nH]c3=O)ncnc2s1
IC50 [1]: 0.34 µM (active)
IC50 (Orexin receptor type 2 [2]): 31.5 µM (inactive)
IC50 (CHO-K1): > 66.2 µM (inactive)
IC50 [3]: > 49.8 µM (inactive)
IC50 [4]: 6.12 µM (active)
IC50 (Orexin receptor type 2 [5]): 1.71 µM (active)

c1ccc(Cn2c[n+](Cc3ccccc3)c3ccccc32)cc1
EC50 [6]: 5.76 µM (active)

Nc1nc(Nc2ccccc2)nc(NC2CCCCC2)c1[N+](=O)[O-]
AC50 [7]: 2.6 µM (active)
EC50 [8]: 6.85 µM (active)
AC50 [9]: 1.04 µM (active)
AC50 [10]: 4.62 µM (active)
EC50 (Streptococcus): 8.07 µM (active)
EC50 (Streptokinase A): > 150 µM (not active)
AC50 [11]: 2.36 µM (active)

CC(C)(Nc1nccc(-c2c[nH]c3ncccc23)n1)c1ccccc1
Ki [12]: 0.0158 µM (active)
Ki [13]: 0.0126 µM (active)
Ki [14]: 0.0251 µM (active)
Ki [15]: 0.0158 µM (active)
Ki [16]: 0.316 µM (active)
Ki [17]: 0.126 µM (active)
Ki [18]: 1.26 µM (active)
Ki [19]: 0.00316 µM (active)
Ki [20]: 0.02 µM (active)

O=[N+]([O-])c1ccc2[nH]c(-c3ccco3)nc2c1
Ki [21]: 2.51 µM (active)
Ki (LIM domain kinase 1): 3.16 µM (active)
Ki [19]: 1.58 µM (active)
Ki [22]: 2.51 µM (active)

CCn1c(=O)c2ccccc2n2c(COc3ccc4c(C(F)(F)F)cc(=O)oc4c3)nnc12
IC50 [23]: > 99 µM (inactive)
IC50 [24]: > 99 µM (inactive)

O=C(N/N=C/c1ccc(-c2ccc([N+](=O)[O-])cc2)o1)c1cccnc1
IC50 (Prothrombin): 19.8 µM (active)
EC50 [25]: > 300 µM (not active)
IC50 [26]: 28.6 µM (active)
EC50 [27]: 27.4 µM (active)
IC50 [28]: > 100 µM (inactive)
